Values of other authors, collected in US6552040B1, “Use of nitroxides in wound healing and in the prevention of photodamage” (priority 1999, dated 2003).

Columns and labels:
[1] = test system: UVB radiation-induced mouse skin damage; conditions: mice, topical solution prior to UVB exposure, versus untreated mice
[2] = in vitro and in vivo
[3] = test system: mammalian cells
[4] = test system: radiation-induced alopecia; conditions: field of heavily irradiated skin

SMILES	protection against UVB radiation skin damage [1]	also measured
Cc1cc(C(C)(C)C)c(O)c(C(C)(C)C)c1 [BHT]	no significant protection	–
CC1(C)CC(O)CC(C)(C)N1[O] [Tempol, 4-hydroxy-2,2,6,6-tetramethyl-piperidinyloxy, free radical]	–	protection against ionizing radiation [2]: both in vitro and in vivo protection; protection of mammalian cells from hydrogen peroxide mediated cytotoxicity [3]: protecting mammalian cells; protection of mammalian cells from superoxide generated from hypoxanthine/xanthine oxidase ([3]; superoxide dismutase mimic): protecting mammalian cells; protection against radiation-induced alopecia [4]: speeding the recovery of hair growth
Cc1c(C)c2c(c(C)c1O)CCC(C)(C(=O)O)O2 (stereo not shown) [Trolox]	significantly less damage	–
Cc1c(C)c2c(c(C)c1O)CC[C@@](C)(CCC[C@H](C)CCC[C@H](C)CCCC(C)C)O2 [alphatocopherol]	significantly less damage	–
O=C1O[C@H]([C@@H](O)CO)C(O)=C1O [ascorbic acid]	significantly less damage	–
CC1=C(/C=C/C(C)=C/C=C/C(C)=C/C=C/C=C(C)/C=C/C=C(C)/C=C/C2=C(C)CCCC2(C)C)C(C)(C)CCC1 [beta-carotene]	no significant protection	–
C=CC(O)C(O)C=C (stereo not shown) [divinylglycol]	no significant protection	–
N[C@@H](CCC(=O)N[C@@H](CS)C(=O)NCC(=O)O)C(=O)O [glutathione]	no significant protection	–
N[C@@H](Cc1c[nH]cn1)C(=O)O [histidine]	no significant protection	–
OC[C@@H](O)[C@@H](O)[C@H](O)[C@H](O)CO [mannitol]	no significant protection	–
CC(C)(CO)[C@@H](O)C(=O)NCCC(=O)NCCS [pantetheine]	no significant protection	–
CCCOC(=O)c1cc(O)c(O)c(O)c1 [propyl galate]	significantly less damage	–
NC(N)=O [urea]	no significant protection	–
